Assay results reported in publication PMC10778758, “Dithioethanol (DTE)-Conjugated Deoxyribose Cyclic Dinucleotide Prodrugs (DTE-dCDNs) as STING Agonist” (International Journal of Molecular Sciences, 2023).
pEC50: −log10 of the molar value. Values joined by “and” are separate entries in the source; they are usually repeats but may differ in a detail not shown here. Equal values may be shown once.

What was measured:
[1] = system: THP1-Lucia cells; test: THP1-Lucia cell-based luciferase reporter assay
Description: THP1-Lucia cell-based reporter assay. THP1-Lucia cells were seeded into a 24-well plate at a density of 5 × 10^4 cells/well. […] Finally, the medium was collected to determine the luciferase activity using QUANTI-Luc (InvivoGen, San Diego, CA, USA) according to the manufacturer′s instruction to calculate the EC50 values of the tested compounds. The results are expressed as the mean ± SD from three independent experiments. Emax values were normalized to the response induced by 2′,3′-cGAMP in each assay and expressed as a mean percentage ± SD from three independent experiments. The THP1-Lucia cell line was obtained from Prof. Junmin Quan from Peking University (Beijing, China).
Figure 5 The luciferase-based assay in the THP1-Lucia reporter cell line. (a) EC50 values represent the mean (±SD) of three independent experiments. (b) Emax values represent the mean (±SD) of three independent experiments.

[2] = system: THP-1 cells; test: RT-qPCR of cytokine mRNA levels in THP-1 cells; format: cell-based; conditions: 4 h
Description: Real-time quantitative PCR (RT-qPCR). The mRNA expression levels of diverse cytokines were measured using quantitative RT-PCR (RT-qPCR) assays. THP-1 cells or CT26 cells were incubated with the compounds for 4 h, subsequently harvested for RNA isolation according to the manufacturer’s instructions of RNApure Tissue&Cell Kit (DNase I) (CWBIO, Cambridge, MA, USA catalogue no. CW0560S). Next, 1 μg RNA was reversely transcribed to cDNA by TransScript All-in-One First-Strand cDNA Synthesis SuperMix for qPCR (One-Step gDNA Removal) (TransGen, Beijing, China). To examine the mRNA levels, real-time PCR was performed in a CFX96 Real-Time PCR system (Bio-RAD, Hercules, CA, USA) using PerfectStart Green qPCR Super Mix (TransGen) and primers (Sangon Biotech, Shanghai, China). The expression level was calculated according to the formula (2^−∆∆Ct) using the GAPDH or β-actin as the internal reference gene and the relative gene expression fold was normalized to the DMSO-treated cells. The THP-1 and CT26 cell lines were obtained from American Type Culture Collection (ATCC, Manassas, VA, USA).
Figure 7 Prodrug 9 improved the production of the type I interferons and proinflammatory cytokines in THP-1 cells. The mRNA expression levels of IFN-β (a), CXCL10 (b), IL-6 (c), and TNF-α (d) were assessed via real-time quantitative PCR (qPCR) under the treatment of prodrug 9 (10 μM), 3′,3′-c-di-dAMP (100 μM), 2′,3′-cGAMP (100 μM), and ADU-S100 (10 μM) for 4 h.

[3] = system: THP-1 cells; test: ELISA of IFN-β protein levels in THP-1 culture supernatants; format: cell-based, human; conditions: 4 h
Description: Enzyme-Linked Immunosorbent Assay (ELISA). THP-1 cells were incubated with the compounds for 4 h. Cell culture supernatants were then analyzed via ELISA for human IFN-β levels (ABclonal, Woburn, MA, USA, catalogue no. RK01630) according to the manufacturer’s instructions. […]
expression levels of IFN-β were assessed by real-time quantitative PCR (qPCR) under the treatment of prodrug 9 (10 μM), 3′,3′-c-di-dAMP (100 μM), 2′,3′-cGAMP (100 μM) and ADU-S100 (10 μM) for 4 h.
Figure S3. Prodrug 9 stimulated the production of IFN-β in THP-1 cells. Under the treatment of prodrug […]
levels of IFN-β were assessed by an enzyme-linked immunosorbent assay (ELISA).
(also on this page, place not known: t reatment -S100 9 3',3'-c-di-dAMPADU-S100 IFN-β/β-actin IFN-β in Culture Medium (pg/ml)) […]

[4] = system: HEK293T cells; test: CCK8 cell viability, HEK293T cells; format: cell-based; conditions: 10 μM, 24 h
Description: Cell viability of THP-1 and HEK293T cells. A total of 5 × 10^3 HEK293T cells or THP-1 cells were seeded in 96-well plates. […] Cell counting kit-8 (CCK8) (US EVERBRIGHT, Newport Beach, CA, USA, c6005) was then used to quantitatively assess the cell viability through the OD value at 450 nm. The HEK293T cell line was obtained from American Type Culture Collection (ATCC).
Figure 8 Cell viability of THP-1 and HEK293T cells stimulated by prodrug 9 and 2′,3′-cGAMP. (a) A total of 5 × 10^3 THP-1 cells or (b) HEK293T cells were seeded in 96-well plates. Cells were stimulated with prodrug 9 (10 μM), 3′,3′-c-di-dAMP (100 μM), and 2′,3′-cGAMP (100 μM) for 24 h. Then, cell counting kit-8 (CCK8) (US EVERBRIGHT, c6005) was used to quantitatively assess cell viability through the OD value at 450 nm. Data are presented as mean ± SD, n = 3.

[5] = THP-1, prodrug 9 10 μM vs 2′,3′-cGAMP 100 μM
[6] = THP-1, prodrug 9 10 μM vs 3′,3′-c-di-dAMP 100 μM
[7] = THP-1, prodrug 9 10 μM vs ADU-S100 10 μM

Nc1ncnc2c1ncn2C1CC2OP(=O)(OCCSSc3ccccn3)OCC3OC(n4cnc5c(N)ncnc54)CC3OP(=O)(OCCSSc3ccccn3)OCC2O1 (stereo not shown) [prodrug 9]
fold activity (EC50) vs 3′,3′-c-di-dAMP [1]: ~43 fold
fold activity (EC50) vs ADU-S100 [1]: ~3.0 fold and 3 fold
maximum activation fold (Emax) relative to 2′,3′-cGAMP [1]: approximately 1.8 fold
maximum activation fold (Emax) relative to 3′,3′-c-di-dAMP [1]: ~1.9 fold
maximum activation fold (Emax) relative to ADU-S100 [1]: ~1.4 fold
pEC50 ([1]; 24 h): 6.02
CXCL10 mRNA expression, fold compared to 2′,3′-cGAMP [2, 5]: ~17 fold
IFN-β mRNA expression, fold compared to 2′,3′-cGAMP [2, 5]: approximately 40 fold
IL-6 mRNA expression, fold compared to 2′,3′-cGAMP [2, 5]: ~1.2 fold
TNF-α mRNA expression, fold compared to 2′,3′-cGAMP [2, 5]: ~46 fold
CXCL10 mRNA expression, fold compared to 3′,3′-c-di-dAMP [2, 6]: ~26 fold
IFN-β mRNA expression, fold compared to 3′,3′-c-di-dAMP [2, 6]: approximately 43 fold
IL-6 mRNA expression, fold compared to 3′,3′-c-di-dAMP [2, 6]: ~1.4 fold
TNF-α mRNA expression, fold compared to 3′,3′-c-di-dAMP [2, 6]: ~12 fold
CXCL10 mRNA expression, fold higher than ADU-S100 [2, 7]: 14 fold
IFN-β mRNA expression, fold higher than ADU-S100 [2, 7]: 14 fold
IL-6 mRNA expression, fold higher than ADU-S100 [2, 7]: 1.9 fold
TNF-α mRNA expression, fold higher than ADU-S100 [2, 7]: 15 fold
IFN-β protein level, fold compared to 2′,3′-cGAMP [3, 5]: approximately 66 fold
IFN-β protein level, fold compared to 3′,3′-c-di-dAMP [3, 6]: ~4.3 fold
IFN-β protein level, fold compared to ADU-S100 [3, 7]: ~5.6 fold
cell viability (CCK8), HEK293T cells [4]: no significant influence on the growth
